Measured values as given in patent US20020165286A1, “Dermal anti-inflammatory composition” (priority 2000, published 2002).
Read-outs that look alike come from different tables or passages of the source.

Key:
[1] = cited from earlier work
[2] = cited from earlier work; remark: listed apart in the source
[3] = cited from earlier work; remark: listed apart in the source
[4] = cited from earlier work; remark: listed apart in the source
[5] = cited from earlier work; remark: listed apart in the source
rhino mouse = experiment: Rhino mouse study: comedolytic activity (number of utriculi, epidermal thickness); assay type: in vivo, rhino mice (RHJ/LeJ Rhino, hr^rh/hr^rh); details: test substance dissolved in ethanol only
From the text: The rhino mouse is an in vivo model for the study of hyperplastic and comedolytic potency of various drugs used in the treatment of acne. The rhino mouse has follicles on the skin. The orifices are distended with horny material and these structures resembles human microcomedones and are referred to as utriculi or pseudocomedones.
In the present study, the comedolytic activity and skin irritation potential of 3% w/v solutions of test substance (1) in different vehicles was studied in order to select a formulation suited for topical application. Selected commercial acne products were included in the study for the purpose of comparison.
105 female rhino mice (RHJ/LeJ Rhino, hr^rh/hr^rh) aged 6-9 weeks were obtained from M&B A/S, Denmark. The mice were placed in cages with free access to a commercial rodent diet (Altromin 1324) and tap water. […]
The mice were killed one day after the end of the treatment period and the dorsal skin was removed. […] These slices were evaluated under the microscope (Nikon LABOPHOT-2) for the number of epidermal utriculi and utriculi profile (×200) and the epidermal thickness (×400), and the mean value and standard deviation for each animal was estimated. […]

For `O=C(O)CCCCCCCC(=O)O` [Azelaic acid], the Anti-inflam. ([1]; topical administration) is given as “Maybe”, the Comedolytic ([2]; topical administration) is given as “Yes” and the Antibacterial ([3]; topical administration) is given as “Yes”. For the same compound, the Potential irritant ([4]; topical administration) was “Yes” and the Teratogenic ([5]; topical administration) was “No”.
In the case of `O=C(OOC(=O)c1ccccc1)c1ccccc1` [Benzoyl peroxide], the Anti-inflam. ([1]; topical administration) is listed as “Maybe”, the Comedolytic ([2]; topical administration) is listed as “Somewhat” and the Antibacterial ([3]; topical administration) is listed as “Yes”. For the same compound, the Potential irritant ([4]; topical administration) was “Yes”.
For `C[C@H]1c2cccc(O)c2C(O)=C2C(=O)[C@]3(O)C(O)=C(C(N)=O)C(=O)[C@@H](N(C)C)[C@@H]3[C@@H](O)[C@@H]21` [Doxycyclin], the Anti-inflam. ([1]; systemic administration) is listed as “Yes”, the Comedolytic ([2]; systemic administration) is listed as “No” and the Antibacterial ([3]; systemic administration) is listed as “Yes”. For the same compound, the Potential irritant ([4]; systemic administration) was “No” and the Teratogenic ([5]; systemic administration) was “Yes”.
In the case of `CC1=C(/C=C/C(C)=C/C=C/C(C)=C\C(=O)O)C(C)(C)CCC1` [Isotretinoin], the Anti-inflam. ([1]; systemic administration) is given as “Yes”, the Comedolytic ([2]; systemic administration) is given as “Yes” and the Antibacterial ([3]; systemic administration) is given as “Yes”. For the same compound, the Potential irritant ([4]; systemic administration) was “Yes” and the Teratogenic ([5]; systemic administration) was “Yes”.
In the case of `CN(C)c1ccc(O)c2c1C[C@H]1C[C@H]3[C@H](N(C)C)C(O)=C(C(N)=O)C(=O)[C@@]3(O)C(O)=C1C2=O` [Minocyclin], the Anti-inflam. ([1]; systemic administration) is listed as “Yes”, the Comedolytic ([2]; systemic administration) is listed as “No” and the Antibacterial ([3]; systemic administration) is listed as “Yes”. For the same compound, the Teratogenic ([5]; systemic administration) was “Yes”.
For `CN(C)[C@@H]1C(=O)C(C(N)=O)=C(O)[C@@]2(O)C(=O)C3=C(O)c4c(O)cccc4[C@@](C)(O)[C@H]3C[C@@H]12` [Tetracyclin], the Anti-inflam. ([1]; systemic administration) is listed as “Yes”, the Comedolytic ([2]; systemic administration) is listed as “No” and the Antibacterial ([3]; systemic administration) is listed as “Yes”. For the same compound, the Potential irritant ([4]; systemic administration) was “No” and the Teratogenic ([5]; systemic administration) was “Yes”.
In the case of `CC1=C(/C=C/C(C)=C/C=C/C(C)=C/C(=O)O)C(C)(C)CCC1` [Tretinoin], the Anti-inflam. ([1]; topical administration) is listed as “No”, the Comedolytic ([2]; topical administration) is listed as “Yes” and the Antibacterial ([3]; topical administration) is listed as “No”. For the same compound, the Potential irritant ([4]; topical administration) was “Yes” and the Teratogenic ([5]; topical administration) was “Maybe”.
For `Cc1cc(F)ccc1Nc1ccc(C(=O)c2ccccc2C)c(Cl)c1` [test substance (1), 2-chloro-4-(4-fluoro-2-methyl-phenylamino)-2′-methylbenzophenone], the “reduction in the number of utriculi” value (rhino mouse) was 51%.
